Test results reported in patent publication US11446287B2, “Compounds and methods for EP300 or CBP modulation and indications therefor” (Opna Immuno-Oncology SA, priority 2019, dated 2022).
pIC50: −log10 of the molar value.

molecular target: T1, Recombinant human CBP containing the bromodomain (CBP-BD (1043-1159)) (Homo sapiens, UniProt Q92793); assay: CBP Alphascreen binding assay; details: read-out: CREBBP (CBP) IC50
T1 construct: Recombinant human CBP bromodomain (CBP-BD (1043-1159)); made in house; host or cells: E. coli BL21-CodonPlus (DE3), modified pET vector
T1 sequence (Q92793 1081-1197): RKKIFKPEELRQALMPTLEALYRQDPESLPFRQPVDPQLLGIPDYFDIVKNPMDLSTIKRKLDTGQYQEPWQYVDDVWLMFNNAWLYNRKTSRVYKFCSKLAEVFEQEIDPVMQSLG
Procedure, shortened: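 Buffer: 50 mM HEPES pH 7.5, 50 mM NaCl, 0.01% BSA, 0.01% Triton X-100, 2 mM DTT. The signal was normalised to plate controls and fitted with a four-parameter curve to give IC50.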

Structure (SMILES)	pIC50
CCOc1cc(C(=O)O)nc(OCC)c1-c1cn(C2CCN(C(=O)OC(C)(C)C)CC2)c2ncc(-c3c(C)noc3C)cc12 [P-0433, 5-(1-(1-(tert-butoxycarbonyl)piperidin-4-yl)-5-(3,5-dimethylisoxazol-4-yl)-1H-pyrrolo[2,3-b]pyridin-3-yl)-4,6-diethoxypicolinic acid]	6.00 to 10.00
Cc1noc(C)c1-c1cnc2c(c1)c(C1CCC(C(=O)O)CC1)cn2-c1ccc(F)cc1F (centres unmarked) [P-0434, 4-(1-(2,4-difluorophenyl)-5-(3,5-dimethylisoxazol-4-yl)-1H-pyrrolo[2,3-b]pyridin-3-yl)cyclohexane-1-carboxylic acid]	6.00 to 10.00
CCOc1cc(C(=O)O)nc(OCC)c1-c1cn(C2CCN(S(C)(=O)=O)CC2)c2ncc(-c3c(C)noc3C)cc12 [P-0435, 5-(5-(3,5-dimethylisoxazol-4-yl)-1-(1-(methylsulfonyl)piperidin-4-yl)-1H-pyrrolo[2,3-b]pyridin-3-yl)-4,6-diethoxypicolinic acid]	6.00 to 10.00
CCOc1cc(C(=O)O)nc(OCC)c1-c1cn(-c2cccnc2)c2ncc(-c3c(C)noc3C)cc12 [P-0436, 5-(5-(3,5-dimethylisoxazol-4-yl)-1-(pyridin-3-yl)-1H-pyrrolo[2,3-b]pyridin-3-yl)-4,6-diethoxypicolinic acid]	6.00 to 10.00
Cc1noc(C)c1-c1cnc2c(c1)c(-c1ccc(CC(=O)O)cc1F)cn2-c1ccc(F)cc1F [P-0437]	6.00 to 10.00
Cc1noc(C)c1-c1cnc2c(c1)c(-c1ccc(CC(=O)O)cc1)cn2-c1ccc(F)cc1F [P-0438, 2-(4-(1-(2,4-difluorophenyl)-5-(3,5-dimethylisoxazol-4-yl)-1H-pyrrolo[2,3-b]pyridin-3-yl)phenyl)acetic acid]	6.00 to 10.00
Cc1noc(C)c1-c1cnc2c(c1)c(-c1c(Cl)cc(C(=O)O)cc1OC(F)(F)F)cn2-c1cccnn1 [P-0439, 3-chloro-4-(5-(3,5-dimethylisoxazol-4-yl)-1-(pyridazin-3-yl)-1H-pyrrolo[2,3-b]pyridin-3-yl)-5-(trifluoromethoxy)benzoic acid]	6.00 to 10.00
COC(=O)c1cc(Cl)c(-c2cn(-c3ccc(C4CC4)nc3)c3ncc(-c4c(C)noc4C)cc23)c(OC(F)(F)F)c1 [P-0440, methyl 3-chloro-4-(1-(6-cyclopropylpyridin-3-yl)-5-(3,5-dimethylisoxazol-4-yl)-1H-pyrrolo[2,3-b]pyridin-3-yl)-5-(trifluoromethoxy)benzoate]	5.10 to 6.00
Cc1noc(C)c1-c1cnc2c(c1)c(-c1c(Cl)cc(C(=O)O)cc1OC(F)(F)F)cn2-c1ccc(C2CC2)nc1 [P-0441, 3-chloro-4-(1-(6-cyclopropylpyridin-3-yl)-5-(3,5-dimethylisoxazol-4-yl)-1H-pyrrolo[2,3-b]pyridin-3-yl)-5-(trifluoromethoxy)benzoic acid]	6.00 to 10.00
CCOc1cc(C(=O)O)c(F)cc1-c1cn(C2CCN(C(=O)OC(C)(C)C)CC2)c2ncc(-c3c(C)noc3C)cc12 [P-0442, 4-(1-(1-(tert-butoxycarbonyl)piperidin-4-yl)-5-(3,5-dimethylisoxazol-4-yl)-1H-pyrrolo[2,3-b]pyridin-3-yl)-5-ethoxy-2-fluorobenzoic acid]	6.00 to 10.00
COc1ccc(CC(=O)O)cc1-c1cn(-c2ccc(F)cc2F)c2ncc(-c3c(C)noc3C)cc12 [P-0443, 2-(3-(1-(2,4-difluorophenyl)-5-(3,5-dimethylisoxazol-4-yl)-1H-pyrrolo[2,3-b]pyridin-3-yl)-4-methoxyphenyl)acetic acid]	6.00 to 10.00
Cc1noc(C)c1-c1cnc2c(c1)c(-c1cc(F)c(C(=O)O)cc1OC(F)(F)F)cn2-c1ccc(C2CC2)nc1 [P-0444, 4-(1-(6-cyclopropylpyridin-3-yl)-5-(3,5-dimethylisoxazol-4-yl)-1H-pyrrolo[2,3-b]pyridin-3-yl)-2-fluoro-5-(trifluoromethoxy)benzoic acid]	6.00 to 10.00
CCOc1cc(C(=O)O)c(F)cc1-c1cn(C2CCN(C(=O)C(C)(C)C)CC2)c2ncc(-c3c(C)noc3C)cc12 [P-0445, 4-(5-(3,5-dimethylisoxazol-4-yl)-1-(1-pivaloylpiperidin-4-yl)-1H-pyrrolo[2,3-b]pyridin-3-yl)-5-ethoxy-2-fluorobenzoic acid]	6.00 to 10.00
CCOc1cc(C(=O)O)c(F)cc1-c1cn(C2CCN(CCC#N)CC2)c2ncc(-c3c(C)noc3C)cc12 [P-0446, 4-(1-(1-(2-cyanoethyl)piperidin-4-yl)-5-(3,5-dimethylisoxazol-4-yl)-1H-pyrrolo[2,3-b]pyridin-3-yl)-5-ethoxy-2-fluorobenzoic acid]	6.00 to 10.00
CCOc1cc(C(=O)O)c(F)cc1-c1cn(C2CCN(C(=O)CO)CC2)c2ncc(-c3c(C)noc3C)cc12 [P-0447, 4-(5-(3,5-dimethylisoxazol-4-yl)-1-(1-(2-hydroxyacetyl)piperidin-4-yl)-1H-pyrrolo[2,3-b]pyridin-3-yl)-5-ethoxy-2-fluorobenzoic acid]	6.00 to 10.00
CCc1onc(C)c1-c1cnc2c(c1)c(-c1c(Cl)cc(C(=O)O)cc1OC(F)(F)F)cn2-c1ccc(C2CC2)nc1 [P-0448, 3-chloro-4-(1-(6-cyclopropylpyridin-3-yl)-5-(5-ethyl-3-methylisoxazol-4-yl)-1H-pyrrolo[2,3-b]pyridin-3-yl)-5-(trifluoromethoxy)benzoic acid]	6.00 to 10.00
Cc1nnn(C)c1-c1cnc2c(c1)c(-c1cccc(C(=O)O)c1)cn2[C@@H](C)c1ccccn1 [P-0449, (S)-3-(5-(1,4-dimethyl-1H-1,2,3-triazol-5-yl)-1-(1-(pyridin-2-yl)ethyl)-1H-pyrrolo[2,3-b]pyridin-3-yl)benzoic acid]	6.00 to 10.00
